Laboratory results as given in US6444691B1, “1,3-disubstituted ureas as ACAT inhibitors, and method of preparing thereof” (Solvakofarma, a.s., priority 1997, dated 2002).

What was measured:
[1] = tested on: rat liver ACAT (acylCoa:cholesterol acyltransferase); assay: In vitro inhibition of ACAT activity, rat liver microsomal fraction; assay type: biochemical; details: rat liver microsomes, concentration 2 μM, versus enzyme activity in 1% dimethylsulfoxide
Procedure: (§1) The biological activity of the substances was evaluated based on the in vitro inhibition of acylCoa:cholesterol acyltransferase (ACAT) activity. The enzyme was obtained from the microsomal fraction of rat liver cells and rabbit intestinal mucosa of animals fed with cholesterol. The substrates for the enzyme reaction included exogenous oleoyl co-enzyme A and endogenous cholesterol. ^14C-oleoyl co-enzyme A conversion to ^14C-cholesteryl oleate was monitored. From the mixture of extracted lipids, cholesteryl oleate was separated using thin-layer chromatography, and was quantified radiometrically. ACAT specific activity was expressed as the amount of cholesteryl oleate formed per minute per mg microsomal protein.
(§2) Efficiency was calculated as compared to enzyme activity measured in the presence of 1% dimethylsulfoxide used as the solvent to prepare solutions of the substances tested.

[2] = tested on: rabbit intestinal mucosa ACAT (acylCoa:cholesterol acyltransferase); assay: In vitro inhibition of ACAT activity, rabbit intestinal mucosa microsomal fraction; assay type: biochemical; details: rabbit intestinal mucosa microsomes, concentration 2 μM, versus enzyme activity in 1% dimethylsulfoxide
Procedure: as §1, §2

Efficiency (%) liver (ACAT inhibition) [1] [%] | Efficiency (%) mucosa (ACAT inhibition) [2] [%] | Compound
88 | 71 | CC(C)c1cccc(C(C)C)c1NC(=O)Nc1ccc(Sc2ccc([N+](=O)[O-])cc2)cc1 [Example 42]
45 | 36 | O=C(Nc1ccc(Sc2ccc([N+](=O)[O-])cc2)cc1)Nc1cccnc1 [Example 47, 1-(3-Pyridyl)-3-((4′-nitrophenylthio)-phenyl)-urea]
53 | 35 | O=C(Nc1ccncc1)Nc1ccc(Sc2ccc([N+](=O)[O-])cc2)cc1 [Example 48, 1-(4-Pyridyl)-3-((4′-nitrophenylthio)-phenyl)-urea]
16 | 31 | O=C(Nc1ccc(Sc2ccc([N+](=O)[O-])cc2)cc1)Nc1ccc2ccccc2c1 [Example 50, 1-(2-Naphthyl)-3-((4′-nitrophenylthio)-phenyl)-urea]
55 | 46 | Nc1ccc(Oc2ccc(NC(=O)Nc3cccc(Cl)c3Cl)cc2)cc1 [Example 53, 1-(2,3-Dichlorophenyl)-3-((4′-aminophenoxy)-phenyl)-urea]
56 | 67 | CC(C)c1cccc(C(C)C)c1NC(=O)Nc1ccc(Sc2ccc(N)cc2)cc1 [Example 59]

Further lines, the molecule ahead of its results:

Compound | Efficiency (%) liver (ACAT inhibition) [1] [%] | Efficiency (%) mucosa (ACAT inhibition) [2] [%]
Cc1ccccc1NC(=O)Nc1ccc(Sc2ccc([N+](=O)[O-])cc2)cc1 [Example 37, 1-(2-Methylphenyl)-3-((4′-nitrophenylthio)-phenyl)-urea] | 27 | 31
Cc1ccc(NC(=O)Nc2ccc(Sc3ccc([N+](=O)[O-])cc3)cc2)cc1 [Example 38, 1-(4-Methylphenyl)-3-((4′-nitrophenylthio)-phenyl)-urea] | 21 | 32
Cc1cc(C)cc(NC(=O)Nc2ccc(Sc3ccc([N+](=O)[O-])cc3)cc2)c1 [Example 41, 1-(3,5-Dimethylphenyl)-3-((4′-nitrophenylthio)-phenyl)-urea] | 18 | 27
O=C(Nc1ccc(Sc2ccc([N+](=O)[O-])cc2)cc1)Nc1ccccc1C(F)(F)F [Example 43, 1-(2-Trifluoromethylphenyl)-3-((4′-nitrophenylthio)-phenyl)-urea] | 25 | 38
O=C(Nc1ccc(Sc2ccc([N+](=O)[O-])cc2)cc1)Nc1ccc(C(F)(F)F)cc1 [Example 45, 1-(4-Trifluoromethylphenyl)-3-((4′-nitrophenylthio)-phenyl)-urea] | 23 | 25
O=C(Nc1ccc(Sc2ccc([N+](=O)[O-])cc2)cc1)Nc1ccccn1 [Example 46, 1-(2-Pyridyl)-3-((4′-nitrophenylthio)-phenyl)-urea] | 48 | 46
O=C(Nc1ccc(Sc2ccc([N+](=O)[O-])cc2)cc1)Nc1cccc2ccccc12 [Example 49, 1-(1-Naphthyl)-3-((4′-nitrophenylthio)-phenyl)-urea] | 24 | 36
O=C(Nc1ccc(Sc2ccc([N+](=O)[O-])cc2)cc1)NC12CC3CC(CC(C3)C1)C2 [Example 51, 1-(1-Adamantyl)-3-((4′-nitrophenylthio)-phenyl)-urea] | 45 | 56
Nc1ccc(Oc2ccc(NC(=O)Nc3ccc(F)cc3F)cc2)cc1 [Example 52, 1-(2,4-Difluorophenyl)-3-((4′-aminophenoxy)-phenyl)-urea] | 53 | 64
Cc1cccc(C)c1NC(=O)Nc1ccc(Oc2ccc(N)cc2)cc1 [Example 54, 1-(2,6-Dimethylphenyl)-3-((4′-aminophenoxy)-phenyl)-urea] | 38 | 62
CC(C)c1cccc(C(C)C)c1NC(=O)Nc1ccc(Oc2ccc(N)cc2)cc1 [Example 55, 1-(2,6-Di(methylethyl)-phenyl)-3-((4′-aminophenoxy)-phenyl)-urea] | 68 | 64
Nc1ccc(Sc2ccc(NC(=O)Nc3ccc(F)cc3F)cc2)cc1 [Example 56, 1-(2,4-Difluorophenyl)-3-((4′-aminophenylthio)-phenyl)-urea] | 22 | 25
Nc1ccc(Sc2ccc(NC(=O)Nc3cccc(Cl)c3Cl)cc2)cc1 [Example 57, 1-(2,3-Dichlorophenyl)-3-((4′-aminophenylthio)-phenyl)-urea] | 15 | 26
Cc1cccc(C)c1NC(=O)Nc1ccc(Sc2ccc(N)cc2)cc1 [Example 58, 1-(2,6-Dimethylphenyl)-3-((4′-aminophenylthio)-phenyl)-urea] | 21 | 29
